Like-named read-outs stand apart in the source and are kept apart here.

The text below walks through data of US10597388B2, “Pyridazinone herbicides” (FMC CORPORATION, priority 2014, dated 2020).

Assay type in all cases: in vivo
Test [1] has as its system momingglory (Ipomoea spp.). Kind of test: Test A greenhouse herbicide test, pre- and postemergence. The conditions noted are these: Ipomoea, 240 h; for pest or weed control at 125 g/ha: 125 g ai/ha; for pest or weed control at 500 g/ha: 500 g ai/ha; for pest or weed control at 500 g/ha / pest or weed control at 1000 g/ha: 0 to 100 scale; for pest or weed control at 1000 g/ha: 1000 g ai/ha. A digest of the protocol: (§1)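 Visual injury ratings, 0 (no effect) to 100 (complete control), versus untreated plants after roughly 10 d in a greenhouse. Compounds, formulated in a surfactant-containing non-phytotoxic solvent, were sprayed on loam–sand soil after sowing (pre) or on one- to two-leaf plants 2–10 cm tall (post).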

Test [2] concerns velvetleaf (Abutilon theophrasti). Described as above. The note with it: Abutilon theophrasti, 240 h; for pest or weed control at 125 g/ha: 125 g ai/ha; for pest or weed control at 500 g/ha: 500 g ai/ha; for pest or weed control at 500 g/ha / pest or weed control at 1000 g/ha: 0 to 100 scale; for pest or weed control at 1000 g/ha: 1000 g ai/ha. The essentials:
as §1

In test [3] the test system is crabgrass, large (large crabgrass, Digitaria sanguinalis). Described as above. The note with it: Digitaria sanguinalis, 240 h; for pest or weed control at 125 g/ha: 125 g ai/ha; for pest or weed control at 500 g/ha: 500 g ai/ha; for pest or weed control at 500 g/ha / pest or weed control at 1000 g/ha: 0 to 100 scale; for pest or weed control at 1000 g/ha: 1000 g ai/ha. A digest of the protocol: as §1

Test [4] concerns wild poinsettia (Euphorbia heterophylla). Kind of test: Test E greenhouse herbicide test, pre- and postemergence. The essentials:
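Herbicidal effect was judged by eye relative to untreated plants 14 to 21 d after spraying, using 0 for no effect and 100 for complete control. Preemergence sprays went onto freshly seeded silt loam; postemergence sprays onto 2–18 cm seedlings.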

Where [5] appears, read: post-emergence, Postemergence, 0 is no effect, 100 is complete control, read-out: Morningglory plant response rating.
Where [6] appears, read: pre-emergence, Preemergence, 0 no effect, 100 complete control, read-out: Plant response rating, Morningglory.
Where [7] appears, read: post-emergence, Postemergence, 0 is no effect, 100 is complete control, read-out: Velvetleaf plant response rating.
[8] abbreviates: pre-emergence, Preemergence, 0 no effect, 100 complete control, read-out: Plant response rating, Velvetleaf.
Setting [9] is: post-emergence, Postemergence, 0 is no effect, 100 is complete control, read-out: Crabgrass, Large plant response rating.
Setting [10] is: pre-emergence, Preemergence, 0 no effect, 100 complete control, read-out: Plant response rating, Crabgrass, Large.
The mark [11] stands for this setting: 62 g ai/ha, Postemergence, scale 0 to 100 (0 no effect, 100 complete control).
The mark [12] stands for this setting: 125 g ai/ha, Postemergence, scale 0 to 100 (0 no effect, 100 complete control).
Where [13] appears, read: 250 g ai/ha, Postemergence, scale 0 to 100 (0 no effect, 100 complete control).
Where [14] appears, read: Postemergence, 31 g ai/ha, visual, scale 0 no effect to 100 complete control.
[15] abbreviates: 62 g ai/ha, Preemergence, scale 0 to 100 (0 no effect, 100 complete control).
Where [16] appears, read: 125 g ai/ha, Preemergence, scale 0 to 100 (0 no effect, 100 complete control).
[17] abbreviates: Preemergence, 31 g ai/ha, scale 0 to 100, 0 no effect, 100 complete control.
[18] abbreviates: Preemergence, 250 g ai/ha, visual, scale 0 no effect to 100 complete control.
The mark [19] stands for this setting: Preemergence, 16 g ai/ha, scale 0 to 100, 0 no effect, 100 complete control.
The mark [20] stands for this setting: Postemergence, 16 g ai/ha, visual, scale 0 no effect to 100 complete control.

Turning to `Cc1nn(C)c(=O)c(-c2c(C)oc3cccc(C)c23)c1O` [Compound 8, 4-(2,4-dimethyl-3-benzofuranyl)-5-hydroxy-2,6-dimethyl-3(2H)-pyridazinone], the pest or weed control at 125 g/ha came to 0% in test [1] (post-emergence, Postemergence, visual rating after approx. 10 d, 0 to 100 scale (0 no effect, 100 complete control), read-out: Plant response rating, Morningglory); 0% in test [1] (pre-emergence, Preemergence, 0 to 100 scale where 0 is no effect and 100 is complete control, read-out: Morningglory plant response rating); 60% in test [2] (post-emergence, Postemergence, visual rating after approx. 10 d, 0 to 100 scale (0 no effect, 100 complete control), read-out: Plant response rating, Velvetleaf); 0% in test [2] (pre-emergence, Preemergence, 0 to 100 scale where 0 is no effect and 100 is complete control, read-out: Velvetleaf plant response rating); 0% in test [3] (post-emergence, Postemergence, visual rating after approx. 10 d, 0 to 100 scale (0 no effect, 100 complete control), read-out: Plant response rating, Crabgrass, Large); 10% in test [3] (pre-emergence, Preemergence, 0 to 100 scale where 0 is no effect and 100 is complete control, read-out: Crabgrass, Large plant response rating). Moreover, the pest or weed control at 500 g/ha was 10% in test [1] (setting [5]); 0% in test [1] (setting [6]); 60% in test [2] (setting [7]); 30% in test [2] (setting [8]); 30% in test [3] (setting [9]); 60% in test [3] (setting [10]).
As to `CCc1oc2ccc(C)cc2c1-c1c(O)c(C)nn(C)c1=O` [Compound 10, 4-(2-ethyl-5-methyl-3-benzofuranyl)-5-hydroxy-2,6-dimethyl-3(2H)-pyridazinone], the pest or weed control at 1000 g/ha in test [1] (setting [5]) was determined as 100%; in test [1] (setting [6]), 90%; in test [2] (setting [7]) it was 100%; in test [2] (setting [8]) it was 90%; in test [3] (setting [9]), 70%; in test [3] (setting [10]) it was 90%.
As to `Cc1nn(C)c(=O)c(-c2cccc3ccccc23)c1O` [Compound 11, 5-hydroxy-2,6-dimethyl-4-(1-naphthalenyl)-3(2H)-pyridazinone], the pest or weed control at 1000 g/ha in test [1] (setting [5]) is 90%; in test [1] (setting [6]) it was 90%; in test [2] (setting [7]), 100%; in test [2] (setting [8]) it was 80%; in test [3] (setting [9]), 70%; in test [3] (setting [10]) it was 80%.
Turning to `Cn1nc(Br)c(O)c(-c2cccc3ccccc23)c1=O` [Compound 20], the “Plant response rating, Poinsettia, Wild” value is 20 in test [4] (setting [11]), 30 in test [4] (setting [12]), 30 in test [4] (setting [13]) and 0 in test [4] (setting [14]).
Take `Cc1nn(C)c(=O)c(-c2ccc(F)c3ccccc23)c1O` [Compound 41]: the “Plant response rating, Poinsettia, Wild” value in test [4] (setting [15]) was 40; in test [4] (setting [16]), 40; in test [4] (setting [17]), 15; in test [4] (setting [18]) it was 65.
Regarding `CCc1sc2ccc(C)cc2c1-c1c(O)c(C)nn(C)c1=O` [Compound 47], the “Plant response rating, Poinsettia, Wild” value in test [4] (setting [11]) amounted to 15; in test [4] (setting [15]) it was 0; in test [4] (setting [12]), 25; in test [4] (setting [16]), 0; in test [4] (setting [13]), 30; in test [4] (setting [14]) it was 10. Also, the “Plant response rating, Poinsettia, Wild” value in test [4] (setting [17]) is 0; in test [4] (setting [18]) it was 20.
`CCc1sc2c(C)cc(C)cc2c1-c1c(O)c(C)nn(C)c1=O` [Compound 57]: the “Plant response rating, Poinsettia, Wild” value in test [4] (setting [11]) is listed as 10; in test [4] (setting [15]), 20; in test [4] (setting [12]) it was 30; in test [4] (setting [16]), 25; in test [4] (setting [13]), 20; in test [4] (setting [14]), 10. The “Plant response rating, Poinsettia, Wild” value was found to be 0 in test [4] (setting [17]) and 50 in test [4] (setting [18]).
As for `Cc1ccc2ccccc2c1-c1c(OC(=O)OC(C)C)c(C)nn(C)c1=O` [Compound 72], the “Plant response rating, Poinsettia, Wild” value in test [4] (setting [11]) was 40; in test [4] (setting [15]) it was 15; in test [4] (setting [12]), 65; in test [4] (setting [16]) it was 10; in test [4] (setting [13]), 75; in test [4] (setting [14]), 30. For the same compound, the “Plant response rating, Poinsettia, Wild” value is on record as 0 in test [4] (setting [17]) and 20 in test [4] (setting [18]).
As for `Cc1ccc2sc(Br)c(-c3c(O)c(C)nn(C)c3=O)c2c1` [Compound 79], the “Plant response rating, Poinsettia, Wild” value is 10 in test [4] (setting [11]); 60 in test [4] (setting [15]); 20 in test [4] (setting [12]); 60 in test [4] (setting [16]); 10 in test [4] (setting [13]); 10 in test [4] (setting [14]). Also, the “Plant response rating, Poinsettia, Wild” value in test [4] (setting [17]) came to 50; in test [4] (setting [18]), 55.
Consider `COC(=O)Oc1c(C)nn(C)c(=O)c1-c1c(C)sc2ccc(C)cc12` [Compound 80], for which the “Plant response rating, Poinsettia, Wild” value in test [4] (setting [15]) was determined as 0; in test [4] (setting [16]), 40; in test [4] (setting [19]) it was 0; in test [4] (setting [17]), 0.
Take `CC(=O)Oc1c(C)nn(C)c(=O)c1-c1c(C)cc(C)c2ccccc12` [Compound 99]: the “Plant response rating, Poinsettia, Wild” value stood at 40 in test [4] (setting [11]), 50 in test [4] (setting [12]), 35 in test [4] (setting [20]) and 30 in test [4] (setting [14]).
`CCCC(=O)Oc1c(C)nn(C)c(=O)c1-c1c(C)sc2ccc(C)cc12` [Compound 105]: the “Plant response rating, Poinsettia, Wild” value came to 25 in test [4] (setting [11]); 10 in test [4] (setting [15]); 30 in test [4] (setting [12]); 10 in test [4] (setting [16]); 30 in test [4] (setting [20]); 30 in test [4] (setting [14]). Moreover, the “Plant response rating, Poinsettia, Wild” value is listed as 0 in test [4] (setting [19]) and 10 in test [4] (setting [17]).
Consider `Cc1nn(C)c(=O)c(-c2cccc3ccc(Br)cc23)c1O` [Compound 126], for which the “Plant response rating, Poinsettia, Wild” value in test [4] (setting [11]) is on record as 20; in test [4] (setting [12]), 50; in test [4] (setting [13]) it was 50; in test [4] (setting [14]), 30.
